# According to patent publication US20210253518A1, “KINASE INHIBITOR” (NISSAN CHEMICAL CORPORATION, priority 2018, published 2021):
# Target: T1, LATS2 (Homo sapiens, UniProt Q9NRM7)
# T1 sequence (Q9NRM7 1-1088): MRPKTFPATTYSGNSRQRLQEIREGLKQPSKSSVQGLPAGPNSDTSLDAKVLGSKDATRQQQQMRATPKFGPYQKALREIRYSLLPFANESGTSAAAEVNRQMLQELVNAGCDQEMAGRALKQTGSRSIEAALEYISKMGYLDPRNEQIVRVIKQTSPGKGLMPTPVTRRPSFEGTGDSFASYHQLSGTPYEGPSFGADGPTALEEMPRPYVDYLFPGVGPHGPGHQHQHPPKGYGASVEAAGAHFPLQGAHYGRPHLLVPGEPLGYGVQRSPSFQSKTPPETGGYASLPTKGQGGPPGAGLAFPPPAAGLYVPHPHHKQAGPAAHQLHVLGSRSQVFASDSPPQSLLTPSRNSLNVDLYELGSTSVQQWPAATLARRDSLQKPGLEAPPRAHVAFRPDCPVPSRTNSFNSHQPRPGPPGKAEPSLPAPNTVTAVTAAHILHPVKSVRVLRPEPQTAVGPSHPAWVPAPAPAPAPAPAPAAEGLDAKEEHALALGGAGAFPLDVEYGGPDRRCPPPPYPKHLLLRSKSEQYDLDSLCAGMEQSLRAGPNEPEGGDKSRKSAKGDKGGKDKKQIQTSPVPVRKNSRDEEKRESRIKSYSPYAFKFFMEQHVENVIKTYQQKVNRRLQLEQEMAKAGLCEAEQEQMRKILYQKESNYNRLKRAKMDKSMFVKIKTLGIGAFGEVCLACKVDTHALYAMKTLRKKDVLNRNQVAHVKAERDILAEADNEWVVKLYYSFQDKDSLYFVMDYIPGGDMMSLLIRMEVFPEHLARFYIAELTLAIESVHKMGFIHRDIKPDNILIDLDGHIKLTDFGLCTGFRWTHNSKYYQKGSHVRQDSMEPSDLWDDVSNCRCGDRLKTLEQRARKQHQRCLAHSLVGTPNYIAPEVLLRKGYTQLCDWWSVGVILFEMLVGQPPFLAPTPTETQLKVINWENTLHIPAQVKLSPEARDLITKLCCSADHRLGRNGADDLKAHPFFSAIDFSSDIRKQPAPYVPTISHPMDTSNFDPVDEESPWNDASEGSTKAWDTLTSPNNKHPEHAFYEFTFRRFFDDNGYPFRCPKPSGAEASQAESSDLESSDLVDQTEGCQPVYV
# Experiment: Off-chip Mobility Shift Assay (MSA method), kinase inhibition
# Type: biochemical
# Conditions: MSA method; 10 steps from 10 μM to 0.3 nM
# Procedure: For compound k-1:B-1, inhibitory activity evaluation (calculation of 50% inhibitory concentration (IC50)) was performed on 8 kinds of kinases (CGK2, LATS2, MSK1, p70S6K, PKACα, PKACβ, SGK2, SGK3). The activity was measured using the Off-chip Mobility Shift Assay (MSA method) described below. The compound was added such that the test concentration of k-1:B-1 was in 10 steps from the final concentration of 10 μM to 0.3 nM.
# As an analysis method of the data, the mean signal of the control well containing all reaction components was set to 0% inhibition, the mean signal without enzyme addition was set to 100% inhibition, and the inhibition rate was calculated from the mean signal of 2 wells of each test substance test. The IC50 value was obtained by approximating a plot based on the test substance concentration and inhibition rate to a 4 parameter logistics curve by using the Excel Solver add-in and by the non-linear least squares method.
# (§1) 5 μL of k-1:B-1 solution at 4-fold concentration, 5 μL of substrate/ATP/metal solution at 4-fold concentration, and 10 μL of kinase solution at 2-fold concentration, each prepared with assay buffer (20 mM HEPES, 0.01% Triton X-100, 2 mM DTT, pH 7.5), were mixed in the wells of a polypropylene 384-well plate and reacted at room temperature for 1 or 5 hr. Successively, 70 μL of Termination Buffer (QuickScout Screening Assist MSA; Carna Biosciences) was added to discontinue the reaction. Then, the substrate peptide and the phosphorylated peptide in the reaction solution were separated and quantified by the LabChip system (Perkin Elmer). The kinase reaction was evaluated by the resultant product ratio (P/(P+S)) calculated from the substrate peptide peak height (S) and the phosphorylated peptide peak height (P).
# For compounds k-1:H-7, k-1:H-1, k-1:D-1, k-1:J-1, and k-1:B-1, inhibitory rate at 100 nM was calculated on 8 kinds of kinases (CGK2, LATS2, MSK1, p70S6K, PKACα, PKACβ, SGK2, SGK3). The activity was measured using the MSA method. As an analysis method of the data, the mean signal of the control well containing all reaction components was set to 0% inhibition, the mean signal without enzyme addition was set to 100% inhibition, and the inhibition rate was calculated from the mean signal of 2 wells of each test substance test.
# as §1, with “a compound” for “k-1:B-1”
# For compounds k-1:I-1, k-1:D-1, k-1:J-1, k-1:H-1, k-1:H-7, k-1:B-1, k-5:H-1, k-1:H-3, k-1:D-4 and k-1:I-10, inhibitory activity evaluation (calculation of IC50) was performed on LATS2. The activity was measured using the Off-chip Mobility Shift Assay (MSA method) described below. The compounds were added such that the test concentration of each compound was in 10 steps from the final concentration of 10 μM to 0.3 nM.
# 5 μL of k-1:I-1, k-1:D-1, k-1:J-1, k-1:H-1, k-1:H-7, k-1:B-1, k-5:H-1, k-1:H-3, k-1:D-4 and k-1:I-10 solutions at 4-fold concentration, 5 μL of substrate/ATP/metal solution at 4-fold concentration, and 10 μL of kinase solution at 2-fold concentration, each prepared with assay buffer (20 mM HEPES, 0.01% Triton X-100, 2 mM DTT, pH 7.5), were mixed in the wells of a polypropylene 384-well plate and reacted at room temperature for 1 or 5 hr. […]
row,IC50 [nM],Compound
1,5.12,CC/C(=N\NC(=O)C(C)Nc1ccccc1)c1ccc(O)c(C)c1O (stereo not shown) [k-1:B-1]
2,12.9,CCC(=NNC(=O)CNc1ccccc1)c1ccc(O)c(C)c1O [k-1:H-1]
3,6.57,CCC(=NNC(=O)C(CC)Nc1ccccc1)c1ccc(O)c(C)c1O (stereo not shown) [k-1:H-7]

# More lines, now with the values behind:
row,Compound,IC50 [nM]
1,CC/C(=N\NC(=O)CNc1cccc(O)c1)c1ccc(O)c(C)c1O [k-1:D-1],1.84
2,CC/C(=N\NC(=O)NCc1cccc(O)c1)c1ccc(O)c(C)c1O [k-1:J-1],5.26

# Same assay, conditions: at 100 nM; MSA method; read-out: inhibition (%) LATS2
row,inhibition at 0.1 µM [%],Compound
1,93.8,CC/C(=N\NC(=O)C(C)Nc1ccccc1)c1ccc(O)c(C)c1O (stereo not shown) [k-1:B-1]
2,92.1,CCC(=NNC(=O)CNc1ccccc1)c1ccc(O)c(C)c1O [k-1:H-1]
3,95.8,CCC(=NNC(=O)C(CC)Nc1ccccc1)c1ccc(O)c(C)c1O (stereo not shown) [k-1:H-7]

# Same assay, conditions: read-out: inhibition (%) LATS2
row,Compound,inhibition at 0.1 µM [%]
1,CC/C(=N\NC(=O)CNc1cccc(O)c1)c1ccc(O)c(C)c1O [k-1:D-1],101
2,CC/C(=N\NC(=O)NCc1cccc(O)c1)c1ccc(O)c(C)c1O [k-1:J-1],96.2
